Experimental data reported in PMC5955437, “Antifungal activity of osthol in vitro and enhancement in vivo through Eudragit S100 nanocarriers” (Virulence, 2017).
Where two headings read alike, the source gives them in different places.

Columns and labels:
C. albicans 103 [1] = assay: Agar disk diffusion test; format: cell-based, Candida albicans; details: for anti-fungal activity, disk on plain agar: Ost alone
Procedure: C. albicans 103 (FLC-resistant isolate with a MIC80 of 64 μg/ml for […]) was tested by agar diffusion assay.[44] A 100 μl of C. albicans 103 in 10^6 CFU/ml suspension was spread uniformly onto the yeast extract-peptone-dextrose agar plate with or without 64 μg/ml FLC. Then, 6-mm paper disks impregnated with Ost and FLC alone or in combination were placed onto the agar surface. There was 5 μl of DMSO in control disks. Inhibition zones were measured after incubation at 35°C for 48 h. Assays were performed in duplicate.

[2] = system: clinical isolates of C. albicans resistant to FLC; assay: Checkerboard microdilution assay (CLSI M27-A2), FLC-resistant clinical isolates; format: cell-based, Candida albicans; details: for antifungal activity when tested alone: FLC-resistant isolates, drug alone; for MIC80 alone / MIC80: 35 °C, 24 h; for MIC80 in combination: FLC combined with Ost; for MIC80: Candida albicans, read-out: MIC80 alone
Procedure: (§1) Eleven clinical isolates of FLC-resistant C. albicans were used in this study, and C. albicans ATCC 90028 was used as a quality control. Drugs prepared in dimethyl sulfoxide (DMSO) included osthol (Shanghai Jianglai Biotechnology Co. Ltd, China) and fluconazole (Pfizer-Roerig Pharmaceuticals, New York, NY).
(§2) Assays were performed on all 11 isolates according to methods of the CLSI (formerly NCCLS) (M27-A2). The concentration of fungus suspension in RPMI 1640 medium was 10^3 CFU/ml, and the final concentration ranged from 0.125 to 64 μg/ml for FLC and 1 to 32 μg/ml for OST. Plates were incubated at 35 °C for 24 h. Optical density was measured at 630 nm and background optical densities were subtracted from each well. MIC80 were defined as the minimum inhibition concentration of the drugs that inhibited growth by 80% when compared with drug-free wells. The fractional inhibitory concentration index (FICI) were defined as the sum of the MIC80 of each drug when used in combination divided by the MIC80 of the drug used alone. Synergism and antagonism were defined by FICIs of≤ 0.5 and >4, respectively. An FICI result of > 0.5 but ≤ 4 was considered indifferent.[43]

C. albicans ATCC 90028 = assay: Checkerboard microdilution assay, quality control strain; format: cell-based, Candida albicans; details: ATCC90028; for MIC80 in combination: FLC combined with Ost
Procedure: as §1, §2

C. albicans 103 [3] = assay: Survival of immunosuppressed mice systemically infected with C. albicans; format: in vivo, Candida albicans; details: immunosuppressed ICR mice, 1 × 10^6 CFU i.v.; oral FLC 0.5 mg/kg/day, Ost 150 mg/kg/day, 4 d treatment
Procedure: Sixty female ICR mice (weighing 20–25 g) were prepared in the antifungal study in vivo. We followed the methods of Junius M et al. and Kenneth et al. with a few modifications.[45,46] Briefly, acute infections in immunosuppressed mice, resulting from a 80 mg/kg/day intravenous dose of cyclophosphamide 3 d before infection, then injected with 1 × 10^6 CFU C. albicans in 0.2 ml of saline intravenously. This inoculum was uniformly lethal for placebo-treated animals within a week. After inoculation, the mice were randomly separated into 6 groups (10 animals per group), including saline control group and medication administration groups (FLC, Ost-S100-NP, Ost-suspensions, Ost-suspensions plus FLC, and Ost-S100-NP plus FLC). The dosages of FLC and Ost are 0.5 mg/kg/day and 150 mg/kg/day by oral administration. Therapy was begun 2 hours post infection and last for 4 d. The survival time was calculated from the day 0 since inoculation to the day of death. Survival data were presented as Kaplan-Merier plots and analyzed with a Log-rank Test (SPSS 18; SPSS, Chicago, Illinois). A value of P < 0.05 was considered to be significant.

7-methoxy-8-[3-methylpent-2-enyl] coumarin [Ost]
mean diameter of the inhibitory zone (C. albicans 103 [1]; 8 μg Ost disk on YEPD plate containing 64 μg/ml FLC): 8 mm
mean diameter of the inhibitory zone (C. albicans 103 [1]; 16 μg Ost disk on YEPD plate containing 64 μg/ml FLC): 12 mm
mean diameter of the inhibitory zone (C. albicans 103 [1]; 32 μg Ost disk on YEPD plate containing 64 μg/ml FLC): 16 mm
mean diameter of the inhibitory zone (C. albicans 103 [1]; 64 μg Ost disk on YEPD plate containing 64 μg/ml FLC): 21 mm
anti-fungal activity, disk on plain agar (C. albicans 103 [1]; 64 μg, 35°C, 48 h): weak anti-fungal activity
anti-fungal activity, disk on plain agar (C. albicans 103 [1]; smaller dosage (below 64 μg), 35°C, 48 h): no anti-fungal activity
antifungal activity when tested alone [2]: weak antifungal activity
MIC80 alone ([2]; isolate 32): 64 µg/mL
MIC80 in combination ([2]; isolate 32): 4 µg/mL
MIC80 alone ([2]; isolate 100): 32 µg/mL
MIC80 in combination ([2]; isolate 100): 4 µg/mL
MIC80 alone ([2]; isolate 103): 64 µg/mL
MIC80 in combination ([2]; isolate 103): 4 µg/mL
MIC80 alone ([2]; isolate 557): 64 µg/mL
MIC80 in combination ([2]; isolate 557): 2 µg/mL
MIC80 alone ([2]; isolate 842): 64 µg/mL
MIC80 in combination ([2]; isolate 842): 2 µg/mL
MIC80 alone ([2]; isolate 901): 16 µg/mL
MIC80 in combination ([2]; isolate 901): 4 µg/mL
MIC80 alone ([2]; isolate 904): >64 µg/mL
MIC80 in combination ([2]; isolate 904): 4 µg/mL
MIC80 alone ([2]; isolate 953): 32 µg/mL
MIC80 in combination ([2]; isolate 953): 4 µg/mL
MIC80 alone ([2]; isolate J5): 64 µg/mL
MIC80 in combination ([2]; isolate J5): 8 µg/mL
MIC80 alone ([2]; isolate J28): 64 µg/mL
MIC80 in combination ([2]; isolate J28): 8 µg/mL
MIC80 alone ([2]; isolate J35): 32 µg/mL
MIC80 in combination ([2]; isolate J35): 8 µg/mL
MIC80 alone (C. albicans ATCC 90028; 35 °C, 24 h): 8 µg/mL
MIC80 in combination (C. albicans ATCC 90028): 1 µg/mL

OC(Cn1cncn1)(Cn1cncn1)c1ccc(F)cc1F [FLC, fluconazole, reference compound]
average survival day (C. albicans 103 [3]): 8.7 days
inhibition, disk on plain agar (C. albicans 103 [1]; FLC alone, 10 μg, 35°C, 48 h): only weak inhibition
MIC80 ([2]; isolate 32): 64 µg/mL
MIC80 ([2]; isolate 100): > 64 µg/mL
MIC80 ([2]; isolate 103): > 64 µg/mL
MIC80 ([2]; isolate 557): > 64 µg/mL
MIC80 ([2]; isolate 842): > 64 µg/mL
MIC80 ([2]; isolate 901): > 64 µg/mL
MIC80 ([2]; isolate 904): > 64 µg/mL
MIC80 ([2]; isolate 953): 64 µg/mL
MIC80 ([2]; isolate J5): > 64 µg/mL
MIC80 ([2]; isolate J28): > 64 µg/mL
MIC80 ([2]; isolate J35): 64 µg/mL
antifungal activity when tested alone [2]: weak antifungal activity
MIC80 in combination ([2]; isolate 32): 2 µg/mL
MIC80 in combination ([2]; isolate 100): 4 µg/mL
MIC80 in combination ([2]; isolate 103): 4 µg/mL
MIC80 in combination ([2]; isolate 557): 2 µg/mL
MIC80 in combination ([2]; isolate 842): 2 µg/mL
MIC80 in combination ([2]; isolate 901): 2 µg/mL
MIC80 in combination ([2]; isolate 904): 2 µg/mL
MIC80 in combination ([2]; isolate 953): 2 µg/mL
MIC80 in combination ([2]; isolate J5): 2 µg/mL
MIC80 in combination ([2]; isolate J28): 8 µg/mL
MIC80 in combination ([2]; isolate J35): 1 µg/mL
MIC80 in combination (C. albicans ATCC 90028): 0.0625 µg/mL
MIC80 (C. albicans ATCC 90028; Candida albicans, 35 °C, 24 h, read-out: MIC80 alone): 0.25 µg/mL
